Nine molecules from patent EP0421419A2, “Tocotrienols in the treatment of hypercholesterolemia, hyperlipidemia and thromboembolic disorders” (Bristol-Myers Squibb Company, priority 1989, dated 1991) can be followed below.

Experiment [1] concerns Cholesterol Synthesis in HepG2 Cells. Description: HepG2 cell culture model, 14C-acetate incorporation assay. It counts as cell-based, human. As to conditions: for % Inhibition 14C-Ac / inhibition at 10 µM: 10 µM, about 4 hours; for inhibition at 10 µM: Homo sapiens, HepG2, read-out: % Inhibition 14C-Ac; for IC50: read-out: IC₅₀; for Rel. Potency: γ-Tocotrienol = 1.0. As for the experimental part: HepG2 cells obtained from the American Type Culture Collection were routinely passaged in RPMI-1640 plus 10% fetal bovine serum (FBS) and were subcultured into 35 mm diameter wells for experiments. […] The LDS medium supplement was prepared according to Cham et al., J. Lipid Res., 17: 176-181, (1976). After about 16 hours in LDS containing media, test compounds were added in dimetthylsulfoxide vehicle (0.5% v/v final conc.) for the period of time indicated in the data (generally 4 hours). Cholesterol synthesis was then directly determined by the incorporation of 2-14C-acetate (1.8-3.0 mCi/mmol) into digitonin-precipitable sterols essentially as described for the rat hepatocyte methol above. Greater than 97% of the radiolabelled sterol isolated by this procedure was cholesterol as judged by HPLC. Percent inhibition was calculated from the average of duplicates or triplicates vs. controls receiving vehicle.
(§1) The human hepatoma HepG2 cell culture model was employed to compare the intrinsic activities of the tocotrienols. HepG2 cells were incubated with the indicated compounds for about 4 hours at 10 µM. Cholestrol synthesis was assayed by 14C-acetate incorporation and HMG-CoA reductase suppression was assayed in the isolated microsomal fraction. Cholesterol synthesis inhibition was assayed by 14C-acetate incorporation after preincubation of HepG2 cells with the compounds for about 2 hours or about 4 hours (Example IV). […] As the data in Figure 1 indicate, gamma-tocotrienol has an even greater relative potency compared to alpha-tocotrienol in the HepG2 cell model than in rat hepatocytes. The IC50s from these studies are given in Table 3, in which it can be seen that the intrinsic potency of gamma-tocotrienol is over 30-fold greater than that of alpha-tocotrienol.

Another experiment relates to HMG-CoA reductase. The experiment is described as follows: HepG2 cell culture model, HMG-CoA reductase suppression assay. It counts as cell-based, human. The note with it: 10 µM, about 4 hours, HepG2 cells. As for the experimental part: HMG-CoA reductase suppression in HepG2 cells was conducted by growing cells in RPMT-1640 plus 10% FBS on 100 mm plates, and when cells reached approximately 75% confluency, inducing with LDS (as described above) for about 16 hours prior to assays. Compounds were added using dimethylsulfoxide vehicle (0.5% v/v, final) and after about 4 hours of incubation at 37°, cells were harvested by scraping. Cell pellets were rinsed and lysed by sonication in 1.7 ml cold 50 mM imidazole-HCL, pH 7.2, 50 mM NaCl, 10 mM EDTA, 10 mM EGTA, 5 mM DTT, and 40µM leupeptin). Lysates were centriguged at 150 x g and the supernatant was centrifuged at 100,000 x g in a Beckman airfuge to isolate the post-nuclear total membrane fraction. The membranes were resuspended in 50 mM imidazole-HCl, pH 7.2, 250 mM NaCl, 5 mM DTT, and 20µM leupeptin and used for the assay of HMG-CoA reductase activity by the radiochemical procedure as described previously by Parker et al., J. Biol. Chem., 264: 4877-4887, (1989). Values were normalized for protein content by the Lowry method as cited previously (ibid). HMG-CoA reductase percent suppression was calculated as the decrease in specific activity of HMG-CoA reductase for treated cells vs. controls receiving vehicle. Averages of duplicate cell determinations assayed in duplicate were taken.
as §1
The mechanism of cholesterol synthesis inhibition by tocotrienols involves down regulation of the limiting enzyme of sterol synthesis, HMG-CoA reductase. […] The suppression of HMG-CoA reductase protein expression by gamma-tocotrienol and delta-tocotrienol in HepG2 cells and in rat liver has been confirmed by immunoassy using the Western blot technique (data not shown).

The test system of a further experiment is Hepatic HMGCoA Reductase. The experiment is described as follows: Acute rat HMGCoA reductase suppression model. The note with it: four hours after administration; for Hepatic HMGCoA Reductase Activity (mean ± SEM): 195 µmol/kg (equivalent to 80 mg/kg Example 24) intragastric in olive oil, vehicle control 479 ± 88; for Hepatic HMGCoA Reductase Activity % of Control: 195 µmol/kg intragastric in olive oil. In kind it is in vivo. As for the experimental part: Using an acute rate model for suppression of hepatic HMGCoA reductase, the effectiveness of three forms of d,l-γ-tocotrienol were compared in vivo. In this assay system, the test agents were administered by intragastric intubation as solutions dissolved in olive oil vehicle. Four hours after administration of test agents, rat liver HMGCoA reductase total activity levels were determined by standard techniques in this laboratory. […]

Another experiment has as its system Lipid Metabolism. Description: Lipid metabolism in normocholesterolemic chickens fed compound in diet. In kind it is in vivo. As to conditions: CCD + 20 ppm per head (text: 50 ppm).
Experiment [2] relates to Cholesterol Synthesis in Isolated Rat Hepatocytes. The experiment is described as follows: Rat hepatocyte cholesterol biosynthesis model (14C-acetate incorporation into digitonin-precipitable sterols). In kind it is cell-based. As to conditions: for inhibition at 210 µg/mL: 210 µg/ml (approx. 500 µM), 60 min 14C-acetate incorporation, 0.2% Tween-80; for inhibition at 250 µg/mL: read-out: % Inhibition at µg/ml conc: 250; for inhibition at 500 µg/mL: read-out: % Inhibition at µg/ml conc: 500; for IC50: read-out: IC₅₀. As for the experimental part:
Primary rat parenchymal hepatocytes were prepared from male Wistar rats (180-220 g) at mid-dark in the diurnal cycle by standard collagenase perfusion method as described previously. Ingebritsen et al. J. Biol. Chem., 254: 9986-9989, (1979). Aliquots of cells were suspended (100 mg in 2 ml) in Eagle's minimum essential medium (MEM) supplemented with 2% bovine albumin, and preincubated in a shaking water bath at about 37° under 95% O₂/5% CO₂ with compounds added as given in the data. […] Following a preincubation of about 15 to about 45 minutes as indicated, cholesterol synthesis in intact cells was assayed by 2-14C-acetate (1.8 mCi/mmol, 0.5 µCi/ml) incorporation for about 30 to about 60 minutes (previously shown to be time-linear) into total digitonin-precipitable sterols. […] Percent inhibition was calculated from the average of duplicates vs. triplicate vehicle controls conducted simultaneously.
The primary rat hepatocyte assay for cholesterol bio-synthesis inhibition was conducted as described in Example 2 except the preincubation was about 45 minutes and the 14C-acetate incorporation was about 30 minutes. The indicated compounds were purified from the same natural product source as the mixture used in Example 2. […] Two-component mixtures of the constituents separated from the tocotrienol mixture were tested under the conditions indentical to Table 2A.

Where [3] appears, read: Rattus norvegicus, Hepatocyte, 15 min preincubation.
The mark [4] stands for this setting: Rattus norvegicus, Hepatocyte, Expt. # 1, 45 min preincubation, 30 min incorporation.
[5] abbreviates: Rattus norvegicus, Hepatocyte, Expt. # 2, 45 min preincubation, 30 min incorporation.

Values after ≈ are worked out from the molar mass of the structure shown. Read-outs that look alike come from different tables or passages of the source.

As for “3,4-dihydro-2-methyl-2-(4,8,12-trimethyltrideca-3(E),7(E),11-trienyl)-2H-1-benzopyran-6-ol [d,1-Tocotrienol]”, the “% Inhibition 14C-Ac” value in experiment [1] was 69%. In the experiment with HMG-CoA reductase, the “% Suppression HMG-CoA Reductase” value was 62%.
Take `CC(C)=CCC/C(C)=C/CC/C(C)=C/CCC1(C)CCc2cc(O)c(C)c(C)c2O1` (racemic) [Ex. 24, 3,4-dihydro-2,7,8-trimethyl-2-(4,8,12-trimethyltrideca-3(E),7(E),11-trienyl)-2H-1-benzopyran-6-ol]: the inhibition at 10 µM in experiment [1] turned out to be 75%. In the experiment with HMG-CoA reductase, the “% Suppression HMG-CoA Reductase” value came out at 65%. Besides, in the experiment with Hepatic HMGCoA Reductase, the “Hepatic HMGCoA Reductase Activity (mean ± SEM)” value came out at 266 ± 24 mU/mg and the “Hepatic HMGCoA Reductase Activity % of Control” value is recorded as 56%. Further, in the experiment with Lipid Metabolism (Table 6, synthetic compound, 4 weeks, control 158.8(±9.0)), the “Serum Cholesterol” value is 121.2(±2.2) mg/dl. In the experiment with Lipid Metabolism (Table 6), the “HDL-Cholesterol [% of Control]” value is recorded as 87.0%, the “LDL-Cholesterol [% of Control]” value is listed as 54.8%, the “Serum Cholesterol [% of Control]” value turned out to be 76.3% and the “Serum Triglycerides [% of Control]” value came out at 100.7%. Further, in the experiment with Lipid Metabolism (Table 6, control 1.938), the HDL/LDL is on record as 3.080. The LDL-Cholesterol with Lipid Metabolism (Table 6, control 52.8 (±1.1)) is reported as 28.9(±1.2) mg/dl. The “Serum Triglycerides” value in the experiment with Lipid Metabolism (Table 6, control 63.4(±2.1)) is given as 63.9(±1.6) mg/dl. For the same molecule, the HDL-Cholesterol in the experiment on Lipid Metabolism (Table 6, control 102.3(±3.0)) is 89.0(±2.9) mg/dl.
On to `CC(=O)Oc1cc2c(c(C)c1C)OC(C)(CC/C=C(\C)CC/C=C(\C)CCC=C(C)C)CC2` (racemic) [Ex. 33, 3,4-Dihydro-2,7,8-Trimethyl-2-(4,8,12-Trimethyltrideca-3(E),7(E), 11-trienyl)-2H-1-Benzopyran-6-Yl Acetate], for which, in the experiment with Hepatic HMGCoA Reductase, the “Hepatic HMGCoA Reductase Activity (mean ± SEM)” value amounted to 236 ± 23 mU/mg and the “Hepatic HMGCoA Reductase Activity % of Control” value stood at 49%.
`CC(C)=CCC/C(C)=C/CC/C(C)=C/CCC1(C)CCc2cc(OC(=O)c3cccnc3)c(C)c(C)c2O1` (racemic) [Ex. 34, 3,4-Dihydro-2,7,8-Trimethyl-2-(4,8,12-Trimethyl 3(E), 7(E),11-tridecatrienyl)-2H-1 Benzopyran-6-Yl-3-Pyridine Carboxylate]: in the experiment on Hepatic HMGCoA Reductase, the “Hepatic HMGCoA Reductase Activity (mean ± SEM)” value was 156 ± 21 mU/mg and the “Hepatic HMGCoA Reductase Activity % of Control” value is given as 33%.
On to `CC(C)=CCC/C(C)=C/CC/C(C)=C/CCC1(C)CCc2c(C)c(O)c(C)c(C)c2O1` (racemic) [d,1-α-tocotrienol, 3,4-dihydro-2,5,7,8-tetramethyl-2-(4,8,12-trimethyltrideca-3(E),7(E),11-trienyl)-2H-1-benzopyran-6-ol, reference compound], for which, in experiment [2] (Rattus norvegicus, Hepatocyte, 41 µg/ml (approx. 100 µM), 15 min preincubation, 60 min incorporation), the inhibition at 41 µg/mL was determined as 4%. The inhibition at 210 µg/mL in experiment [2] (setting [3]) turned out to be 17%. Moreover, in experiment [1], the inhibition at 10 µM was 20%. Further, in the experiment with HMG-CoA reductase, the “% Suppression HMG-CoA Reductase” value worked out at 19%.
For the molecule `Cc1c(C)c2c(c(C)c1O)CC[C@@](C)(CCC[C@H](C)CCC[C@H](C)CCCC(C)C)O2` [d-α-tocopherol, reference compound], the IC₅₀ result in experiment [2] (Expt. # 1, 45 min preincubation, 30 min incorporation) is reported as “no inhib”. The inhibition at 210 µg/mL in experiment [2] (setting [3]) stood at 0%. For the same molecule, the inhibition at 250 µg/mL in experiment [2] (setting [4]) and in experiment [2] (setting [5]) was 0% throughout. Besides, the inhibition at 500 µg/mL in experiment [2] (setting [4]) is 2%; in experiment [2] (setting [5]) it was 0%.
Take `CC(C)=CCC/C(C)=C/CC/C(C)=C/CC[C@]1(C)CCc2c(C)c(O)c(C)c(C)c2O1` [d-α-tocotrienol, reference compound]: in experiment [2] (Rattus norvegicus, Hepatocyte, 125 µg/ml, Expt. # 2, 45 min preincubation, 30 min incorporation, read-out: % Inhibition at µg/ml conc: 125), the inhibition at 125 µg/mL was 8%. In addition, in experiment [2] (setting [4]), the inhibition at 250 µg/mL worked out at 8%, the inhibition at 500 µg/mL is 12% and the IC50 was above 1000 µg/mL. In experiment [2] (setting [5]), the inhibition at 250 µg/mL stood at 20%, the inhibition at 500 µg/mL came out at 33% and the IC50 is 1300 µg/mL (≈ 3.06 mM).
As to α-Tocotrienol [reference compound], in experiment [1] (2 hr. Incubation), the IC50 was determined as 380 µM and the “Rel. Potency” value worked out at 0.02. In experiment [1] (4 hr. Incubation), the IC50 was found to be 94 µM and the “Rel. Potency” value turned out to be 0.03.
As to γ-Tocopherol [reference compound], in experiment [1], the “% Inhibition 14C-Ac” value turned out to be 3%. The “% Suppression HMG-CoA Reductase” value in the experiment on HMG-CoA reductase worked out at 0%.
